How the values were obtained:
[1] = tested on: ginsenoside glycosidases from A. niger; assay: Hydrolysis of ginsenosides with crude ginsenoside glycosidases from A. niger, products measured by TLC; type: biochemical, Aspergillus niger
Procedure: Aspergillus niger FFCCDL-48 g was cultured in a medium containing 1% ginseng extracts and 3% wheat bran extracts at 30° C. for 54 hours. Cells were removed by centrifugation, after which (NH4)2SO4 powder was added to 2000 ml of the cell-free supernatant with stirring to 65% saturation. The solution was stored overnight at 4° C. and precipitated proteins were collected by centrifugation, resuspended in 80 ml of distilled water and dialyzed against 0.01M acetate buffer pH 5. Insolubles were removed by centrifugation, and the solution was adjusted to 200 ml with 0.01 M acetate buffer pH 5. The crude enzyme solution may be used to hydrolyze ginsenosides or to purify the enzymes.
100 mg each of ginsenosides Rb1, Rb2, Rc and Rd and 10 mg of ginsenoside Rg3 were dissolved in separate tubes containing 10 ml of 0.01M acetate buffer pH 5. 10 ml of the crude enzyme solution obtained in 1.1 was added to each tube and allowed to react at 30° C. for 18 hours. Then 10 ml of n-butanol was added to stop the reactions. The products were measured by thin layer chromatography (TLC) (Silica gel 60-F254, Merck; chloroform:methanol:water 70:30:5).
Experiments were carried out to explore the effects of temperature, pH, metal ions and reaction time on the enzyme reaction, in order to further characterize the enzymes.
100 mg of ginsenoside Rb1 was used in a reaction under the conditions as described in 1.2 and the effect of temperature was shown in Table 2.

[2] = tested on: Cellulose β-glucosidase of Clostridium and Bacillus (EC 3.2.1.21); assay: Comparison: hydrolysis of ginsenosides with cellulose β-glucosidase of Clostridium and Bacillus; type: biochemical, Clostridium thermocopiriae and Bacillus sp. AX; details: substrate 0.5%, pH 5.0, 30° C., 18 hours
From the text: (§1) To observe the differences between the ginsenoside glycosidases of the invention and known exo-cellulases, the ginsenoside glycosidases of the invention were compared with cellulose β-glucosidase (E.C. 3.2.1.21) in two reactions with 0.5% ginsenosides Rb1 or Rd as substrate.
Cellulose β-glucosidases (EC 3.2.1.21) from Clostridium thermocopiriae and Bacillus sp. AX cannot hydrolyze any glycosides of ginsenosides. The cellulose β-glucosidase from almond slightly hydrolyzes the C-20 glycoside of Rb1, Rb2 and Rc to give ginsenoside Rd, but it cannot hydrolyze the glucoside at C-3. Ginsenoside glycosidase II is similar to cellulose β-glucosidase from almond, but it only slightly hydrolyzes Rd. The properties of ginsenoside glycosidase III are totally different from those of cellulose β-glucosidases.

[3] = tested on: Cellobiose-producing enzyme from Clostridium; assay: Comparison: hydrolysis of ginsenosides with cellobiose-producing enzyme; type: biochemical, Clostridium thermocopiriae; details: substrate 0.5%, pH 5.0, 30° C., 18 hours
From the text: as §1
An exo-cellulase from Clostridium thermocopiriae (cellobiose-producing enzyme) cleaves cellodextrin to give cellobiose, but cannot hydrolyze diglucosidic bond at C-3 of ginsenoside Rd. So it is completely different from ginsenoside glycosidase III. Therefore, the ginsenoside glycosidases of the invention are enzymes different from known cellulose β-glucosidases and cellobiose-producing enzymes.

[4] = tested on: ginsenoside glycosidases from wheat bran; assay: Hydrolysis of ginsenosides with ginsenoside glycosidases from wheat bran; type: biochemical; details: 10 ml of 1% ginsenoside substrate, 40° C., 20 hours
Procedure: 500 g of wheat bran was added to 2500 ml of 0.02 M acetate buffer pH 5 and extracted at 40° C. for 2 hours. 2000 ml of supernatant were obtained by filtration to which (NH4)2SO4 was added gradually with stirring until 70% saturation. The mixture stand at 4° C. overnight. Protein pellets were collected by centrifugation and redissolved in 80 ml of distilled water and dialyzed against 0.02 M acetate buffer pH 5.0. Insolubles were removed by centrifugation and the supernatant was adjusted to a volume of 200 ml to obtain the crude enzyme solution.
10 ml of the enzyme solution was allowed to react with 10 ml of 1% ginsenoside substrate at 40° C. for 20 hours.

[5] = Rb1 0.5%, 20° C., pH 5.0, 18 hours
[6] = Rb1 0.5%, 30° C., pH 5.0, 18 hours
[7] = Rb1 0.5%, 40° C., pH 5.0, 18 hours
[8] = Rb1 0.5%, 50° C., pH 5.0, 18 hours
[9] = Rb1 0.5%, 60° C., pH 5.0, 18 hours
[10] = Rb1 0.5%, 70° C., pH 5.0, 18 hours
[11] = Rb1 0.5%, Ca^++ 50 mM, pH 5.0, 30°C.
[12] = Rb1 0.5%, Ca^++ 100 mM, pH 5.0, 30°C.
[13] = Rb1 0.5%, Cu^++ 100 mM, pH 5.0, 30°C.
[14] = Rb1 0.5%, Mg^++ 50 mM, pH 5.0, 30°C.
[15] = Rb1 0.5%, Mg^++ 100 mM, pH 5.0, 30°C.
[16] = Rb1 0.5%, No ion, pH 5.0, 30°C.
[17] = Rb1 0.5%, Pb^++ 100 mM, pH 5.0, 30°C.
[18] = Rb1 0.5%, pH 3.0, 30° C., 18 hours
[19] = Rb1 0.5%, pH 4.0, 30° C., 18 hours
[20] = Rb1 0.5%, pH 5.0, 30° C., 18 hours
[21] = Rb1 0.5%, pH 6.0, 30° C., 18 hours
[22] = Rb1 0.5%, pH 7.0, 30° C., 18 hours
[23] = Rb1 0.5%, pH 8.0, 30° C., 18 hours
[24] = Rb1 0.5%, reaction time 1 hours, pH 5, 30° C.
[25] = Rb1 0.5%, reaction time 4 hours, pH 5, 30° C.
[26] = Rb1 0.5%, reaction time 8 hours, pH 5, 30° C.
[27] = Rb1 0.5%, reaction time 12 hours, pH 5, 30° C.
[28] = Rb1 0.5%, reaction time 18 hours, pH 5, 30° C.
[29] = Rb1 0.5%, reaction time 24 hours, pH 5, 30° C.
[30] = Rb1 0.5%, reaction time 30 hours, pH 5, 30° C.
[31] = Rb1 0.5%, reaction time 36 hours, pH 5, 30° C.

## CC(C)=CCC[C@](C)(O[C@@H]1O[C@H](CO[C@@H]2O[C@H](CO)[C@@H](O)[C@H](O)[C@H]2O)[C@@H](O)[C@H](O)[C@H]1O)[C@H]1CC[C@]2(C)[C@@H]1[C@H](O)C[C@@H]1[C@@]3(C)CC[C@H](O[C@@H]4O[C@H](CO)[C@@H](O)[C@H](O)[C@H]4O[C@@H]4O[C@H](CO)[C@@H](O)[C@H](O)[C@H]4O)C(C)(C)[C@@H]3CC[C@]12C [Rb1, ginsenoside Rb1]
[1]; [5]
  Percentage of C—K in the reaction product: 10%
  Percentage of F2 in the reaction product: 15%
  Percentage of Rb1 in the reaction product: 25%
  Percentage of Rd in the reaction product: 50%
[1]; [6]
  Percentage of C—K in the reaction product: 16%
  Percentage of F2 in the reaction product: 63%
  Percentage of Rb1 in the reaction product: 1%
  Percentage of Rd in the reaction product: 10%
  Percentage of Rh2 in the reaction product: 5%
  Percentage of aglycone in the reaction product: 5%
[1]; [7]
  Percentage of C—K in the reaction product: 34%
  Percentage of F2 in the reaction product: 50%
  Percentage of Rd in the reaction product: 5%
  Percentage of Rh2 in the reaction product: 6%
  Percentage of aglycone in the reaction product: 5%
[1]; [8]
  Percentage of C—K in the reaction product: 42%
  Percentage of F2 in the reaction product: 40%
  Percentage of Rd in the reaction product: 5%
  Percentage of Rh2 in the reaction product: 4%
  Percentage of aglycone in the reaction product: 4%
[1]; [9]
  Percentage of C—K in the reaction product: 6%
  Percentage of F2 in the reaction product: 10%
  Percentage of Rb1 in the reaction product: 30%
  Percentage of Rd in the reaction product: 50%
  Percentage of Rh2 in the reaction product: 2%
  Percentage of aglycone in the reaction product: 2%
[1]; [10]
  Percentage of Rb1 in the reaction product: 82%
  Percentage of Rd in the reaction product: 18%
[1]; [11]
  Percentage of C—K in the reaction product: 20%
  Percentage of F2 in the reaction product: 65%
  Percentage of Rd in the reaction product: 4%
  Percentage of Rh2 in the reaction product: 7%
  Percentage of aglycone in the reaction product: 4%
[1]; [12]
  Percentage of C—K in the reaction product: 21%
  Percentage of F2 in the reaction product: 67%
  Percentage of Rh2 in the reaction product: 7%
  Percentage of aglycone in the reaction product: 5%
[1]; [13]
  Percentage of C—K in the reaction product: 10%
  Percentage of F2 in the reaction product: 30%
  Percentage of Rb1 in the reaction product: 30%
  Percentage of Rd in the reaction product: 30%
[1]; [14]
  Percentage of C—K in the reaction product: 17%
  Percentage of F2 in the reaction product: 65%
  Percentage of Rd in the reaction product: 6%
  Percentage of Rh2 in the reaction product: 7%
  Percentage of aglycone in the reaction product: 5%
[1]; [15]
  Percentage of C—K in the reaction product: 21%
  Percentage of F2 in the reaction product: 67%
  Percentage of Rh2 in the reaction product: 8%
  Percentage of aglycone in the reaction product: 4%
[1]; [16]
  Percentage of C—K in the reaction product: 16%
  Percentage of F2 in the reaction product: 63%
  Percentage of Rd in the reaction product: 10%
  Percentage of Rh2 in the reaction product: 5%
  Percentage of aglycone in the reaction product: 2%
[1]; [17]
  Percentage of C—K in the reaction product: 1%
  Percentage of F2 in the reaction product: 9%
  Percentage of Rb1 in the reaction product: 70%
  Percentage of Rd in the reaction product: 20%
[1]; [18]
  Percentage of C—K in the reaction product: 40%
  Percentage of F2 in the reaction product: 30%
  Percentage of Rb1 in the reaction product: 2%
  Percentage of Rd in the reaction product: 20%
  Percentage of Rh2 in the reaction product: 8%
  Percentage of aglycone in the reaction product: 10%
[1]; [19]
  Percentage of C—K in the reaction product: 39%
  Percentage of F2 in the reaction product: 43%
  Percentage of Rb1 in the reaction product: 1%
  Percentage of Rd in the reaction product: 10%
  Percentage of Rh2 in the reaction product: 7%
  Percentage of aglycone in the reaction product: 5%
[1]; [20]
  Percentage of C—K in the reaction product: 16%
  Percentage of F2 in the reaction product: 63%
  Percentage of Rd in the reaction product: 10%
  Percentage of Rh2 in the reaction product: 5%
  Percentage of aglycone in the reaction product: 5%
[1]; [21]
  Percentage of C—K in the reaction product: 21%
  Percentage of F2 in the reaction product: 56%
  Percentage of Rd in the reaction product: 15%
  Percentage of Rh2 in the reaction product: 4%
  Percentage of aglycone in the reaction product: 4%
[1]; [22]
  Percentage of C—K in the reaction product: 6%
  Percentage of F2 in the reaction product: 41%
  Percentage of Rb1 in the reaction product: 10%
  Percentage of Rd in the reaction product: 41%
  Percentage of Rg3 in the reaction product: 2%
  Percentage of Rh2 in the reaction product: 2%
  Percentage of aglycone in the reaction product: 2%
[1]; [23]
  Percentage of C—K in the reaction product: 6%
  Percentage of F2 in the reaction product: 36%
  Percentage of Rb1 in the reaction product: 20%
  Percentage of Rd in the reaction product: 45%
  Percentage of Rg3 in the reaction product: 3%
[1]; [24]
  Percentage of Rb1 in the reaction product: 38%
  Percentage of Rd in the reaction product: 62%
[1]; [25]
  Percentage of F2 in the reaction product: 10%
  Percentage of Rb1 in the reaction product: 12%
  Percentage of Rd in the reaction product: 72%
[1]; [26]
  Percentage of C—K in the reaction product: 2%
  Percentage of F2 in the reaction product: 38%
  Percentage of Rb1 in the reaction product: 8%
  Percentage of Rd in the reaction product: 51%
[1]; [27]
  Percentage of C—K in the reaction product: 6%
  Percentage of F2 in the reaction product: 54%
  Percentage of Rb1 in the reaction product: 6%
  Percentage of Rd in the reaction product: 30%
  Percentage of Rh2 in the reaction product: 2%
  Percentage of aglycone in the reaction product: 2%
[1]; [28]
  Percentage of C—K in the reaction product: 16%
  Percentage of F2 in the reaction product: 63%
  Percentage of Rd in the reaction product: 10%
  Percentage of Rh2 in the reaction product: 5%
  Percentage of aglycone in the reaction product: 5%
[1]; [29]
  Percentage of C—K in the reaction product: 24%
  Percentage of F2 in the reaction product: 60%
  Percentage of Rd in the reaction product: 8%
  Percentage of Rh2 in the reaction product: 4%
  Percentage of aglycone in the reaction product: 4%
[1]; [30]
  Percentage of C—K in the reaction product: 44%
  Percentage of F2 in the reaction product: 40%
  Percentage of Rd in the reaction product: 5%
  Percentage of Rg3 in the reaction product: 2%
  Percentage of Rh2 in the reaction product: 6%
  Percentage of aglycone in the reaction product: 3%
[1]; [31]
  Percentage of C—K in the reaction product: 52%
  Percentage of F2 in the reaction product: 30%
  Percentage of Rd in the reaction product: 2%
  Percentage of Rg3 in the reaction product: 3%
  Percentage of Rh2 in the reaction product: 7%
  Percentage of aglycone in the reaction product: 6%
[1]; pH 5, 30° C., 18 hours
  Percentage of C—K in the reaction product: 16%
  Percentage of F2 in the reaction product: 63%
  Percentage of Rb1 in the reaction product: 1%
  Percentage of Rd in the reaction product: 10%
  Percentage of Rh2 in the reaction product: 5%
  Percentage of aglycone in the reaction product: 5%
[2]
  Percentage of Rb1 in the reaction product: 100%
[3]
  Percentage of Rb1 in the reaction product: 100%
[4]
  Percentage of F2 in the reaction product: 55%
  Percentage of Rd in the reaction product: 40%

From patent publication US7759101B2, “Ginsenoside glycosidases hydrolyzing ginsenoside sugar moieties and uses thereof” (priority 2000, dated 2010)
